Measured values reported in patent publication US11679108B2, “Aromatic heterocyclic compound, and pharmaceutical composition and use thereof” (GUANGZHOU HENOVCOM BIOSCIENCE CO., LTD., priority 2018, dated 2023).

These compounds were tested against T1, ATX in human plasma (Homo sapiens, UniProt Q13822) (assay: Analysis in vitro: detection of LPA in human plasma for screening activity (LPA 18:2 by LC/MS/MS)). Conditions: incubated 2 hours at 37° C., LPA 18:2 detected by LC/MS/MS.
T1 construct: blank plasma was derived from at least 6 individual people; from tissue; host or cells: human plasma (pooled from at least 6 individuals)
Assay type: biochemical
Excerpt: Analysis In Vitro: Detection of LPA in Human Plasma for Screening Activity
Principle: LPC in plasma being used as a substrate, the produced LPA 18:2 (LPA 17:0 as an internal standard) is detected by LC/MS/MS quantitative analysis. At different concentrations of the compounds to be tested, the percentage of residual activity is obtained by the ratio of the production of LPA18:2 to that in the absence of the compounds to be tested, thereby calculating IC50 values.
Experiment procedures: blank plasma was derived from at least 6 individual people. The compounds to be tested were diluted from stock solution in 3-fold dilution gradient, to produce 8 concentrations of working solution (with zero) in series. 10 μL of the melting blank plasma samples were taken and iced methanol solution containing internal standard (LPA 17:0) was added to it, so that the mixture directedly performed protein precipitation, which served as a system control sample. 2 μL of the working solution in different concentration was taken and 198 μL of blank human plasma was added, which was incubated with a concentration of 0 to 10 μM. The samples were placed at an incubater containing 5% CO2 at 37° C., and incubated for 2 hours. When the incubation was completed, 10 μL of plasma sample was taken and appropriate volume of iced methanol solution containing internal standard (LPA 17:0) was added into it, so that the mixture directedly performed protein precipitation. The precipitation was centrifuged to take supernatant. LPA 18:2 was detected by LC/MS/MS and IC50 values were analyzed and calculated by software, seeing Table 2.

IC50 [nM]	Compound
100 to 500	CCc1nc2sc(N3CC4CCN(CC(=O)N5CC(O)C5)C4C3)nn2c1N(C)c1nc(-c2ccc(F)cc2)c(C#N)s1 (stereo not shown) [Example 62, 2-{[6-ethyl-2-(1-(2-(3-hydroxyazetidin-1-yl)-2-oxoethyl)hexahydropyrrolo[3,4-b]pyrrol-5(1H)-yl)imidazo[2,1-b][1,3,4]thiadiazol-5-yl](methyl)amino}-4-(4-fluorophenyl)thiazole-5-carbonitrile]
0.01 to 100	CCc1nc2sc(N3CC(N(C)CC(=O)N4CC(O)C4)C3)nn2c1N(C)c1nc(-c2ccc(F)cc2)c(C#N)s1 [Example 63]
0.01 to 100	CCc1nc2sc(N3CCC(NC(=O)N4CC(O)C4)C3)nn2c1N(C)c1nc(-c2ccc(F)cc2)c(C#N)s1 (stereo not shown) [Example 64, N-{1-[5-((5-cyano-4-(4-fluorophenyl)thiazol-2-yl)(methyl)amino)-6-ethylimidazo[2,1-b][1,3,4]thiadiazol-2-yl]pyrrolidin-3-yl}-3-hydroxyazadetin-1-carboxamide]
0.01 to 100	CCc1nc2sc(N3CCN(CC(=O)N4CC(O)C4)C(C)(C)C3)nn2c1N(C)c1nc(-c2ccc(F)cc2)c(C#N)s1 [Example 65, 2-{[6-ethyl-2-(4-(2-(3-hydroxyazetidin-1-yl)-2-oxoethyl)-3,3-dimethylpiperazin-1-yl)imidazo[2,1-b][1,3,4]thiadiazol-5-yl](methyl)amino}-4-(4-fluorophenyl)thiazole-5-carbonitrile]
0.01 to 100	CCc1nc2sc(N3CCN(CC(=O)N4CC(O)C4)C[C@H]3C)nn2c1N(C)c1nc(-c2ccc(F)cc2)c(C#N)s1 [Example 66, (R)-2-{[6-ethyl-2-(4-(2-(3-hydroxyazetidin-1-yl)-2-oxoethyl)-2-methylpiperazin-1-yl)imidazo[2,1-b][1,3,4]thiadiazol-5-yl](methyl)amino}-4-(4-fluorophenyl)thiazole-5-carbonitrile]
0.01 to 100	CCc1nc2sc(N3CCN(CC(=O)N4CC(O)C4)C[C@@H]3C)nn2c1N(C)c1nc(-c2ccc(F)cc2)c(C#N)s1 [Example 67, (S)-2-{[6-ethyl-2-(4-(2-(3-hydroxyazetidin-1-yl)-2-oxoethyl)-2-methylpiperazin-1-yl)imidazo[2,1-b][1,3,4]thiadiazol-5-yl](methyl)amino}-4-(4-fluorophenyl)thiazole-5-carbonitrile]
0.01 to 100	CCc1nc2sc(N3CCN(CC(=O)N4CC(O)C4)[C@@H](C)C3)nn2c1N(C)c1nc(-c2ccc(F)cc2)c(C#N)s1 [Example 68, (S)-2-{[6-ethyl-2-(4-(2-(3-hydroxyazetidin-1-yl)-2-oxoethyl)-3-methylpiperazin-1-yl)imidazo[2,1-b][1,3,4]thiadiazol-5-yl](methyl)amino}-4-(4-fluorophenyl)thiazole-5-carbonitrile]
100 to 500	CCc1nc2sc(N3CCN(CC(=O)N4CC(O)C4)[C@H](C)C3)nn2c1N(C)c1nc(-c2ccc(F)cc2)c(C#N)s1 [Example 69, (R)-2-{[6-ethyl-2-(4-(2-(3-hydroxyazetidin-1-yl)-2-oxoethyl)-3-methylpiperazin-1-yl)imidazo[2,1-b][1,3,4]thiadiazol-5-yl](methyl)amino}-4-(4-fluorophenyl)thiazole-5-carbonitrile]
100 to 500	CCc1nc2sc(N3CCN(CC(=O)N4CC(O)C4)C4(CC4)C3)nn2c1N(C)c1nc(-c2ccc(F)cc2)c(C#N)s1 [Example 71, 2-{[6-ethyl-2-(4-(2-(3-hydroxyazetidin-1-yl)-2-oxoethyl)-4,7-diazaspiro[2.5]octan-7-yl)imidazo[2,1-b][1,3,4]thiadiazol-5-yl](methyl)amino}-4-(4-fluorophenyl)thiazole-5-carbonitrile]

Compound	IC50 [nM]
CCc1nc2sc(N3CC4CCC(C3)N4CC(=O)N3CC(O)C3)nn2c1N(C)c1nc(-c2ccc(F)cc2)c(C#N)s1 [Example 70, 2-{[6-ethyl-2-(8-(2-(3-hydroxyazetidin-1-yl)-2-oxoethyl)-3,8-diazabicyclo[3.2.1]octan-3-yl)imidazo[2,1-b][1,3,4]thiadiazol-5-yl](methyl)amino}-4-(4-fluorophenyl)thiazole-5-carbonitrile]	100 to 500
